The text below walks through data of patent US20250162973A1, “METHODS OF SYNTHESIS AND USES OF AGRIMOL COMPOUNDS” (Versitech Limited, priority 2022, published 2025).

The test system of assay [1] is cancer stem cells (NCI-H460 tumorspheres). The assay is described as follows: MTT assay on tumorspheres (cancer stem cells). It counts as cell-based. The following applies: Homo sapiens, 72-h treatment. How it is done:
For IC50 determination of sphere, similar procedures were performed as mentioned above. Briefly, cells were plated in 96-well clear flat bottom ultra-low attachment cell culture plates (Corning®) with a density of 5*10^3 cells into each well with specific sphere formation medium (DMEM/F12 medium supplemented with 20 ng/mL EGF, 20 ng/mL bFGF, 2% B27). The cells were then treated with AGB at different concentrations, ranging from 0.3 to 100 μM. After 3 days of treatment, the formed tumorspheres in each well were monitored under microscope. The MTT was then applied to determine the cell viability and the cell viability of AGB-treatment group was calculated via normalization to control groups and the IC50 value was calculated from the plot curve that fitted to a Boltzmann sigmoidal function.
In general terms: Tetrazolium assays rely on reduction of a dye to a coloured formazan, in cell work by metabolically active cells.

The subject of assay [2] is stem-like NCI-H460 xenograft. The assay is described as follows: Cancer stem like xenograft model. The settings on record: AGB 3 mg/kg, tail intravenous injection. In kind it is in vivo, NOD/SCID mice. How it is done: In vivo anticancer efficacy of AGB was evaluated using the human tumor xenograft model, in which human cancer cells were inoculated into immune-deficiency mice. Briefly, twelve six-week-old (16-18 g) BALB/c nude mice were randomly divided into two groups and both received subcutaneous injection of NCI-H460 cells (2 million cells in 0.1 mL PBS) at its right flank of mice and tumor became palpable after three days of injection. Mice were received intravenous (i.v.) injections of AGB or vehicle control (10% DMSO and 0.05% Tween 80 in normal saline) every two days in two weeks. The length and width of tumor were measured by Vernier caliper and the body weight was monitored every two or three days. At the end of experiment, mice were sacrificed and decapitated. The liver, kidney, and tumor were collected and fixed in 4% formaldehyde for further haematoxylin and eosin (H&E) staining. All animal experiments in this project received human care and study protocols complied with the guidelines of the Laboratory Animal Services Centre of the University of Hong Kong. Tumor sizes and body weight were recorded before the drug injection every time and tumor volume (V) was calculated by the formula V=LW^2/2, where L is tumor length and W is tumor width. […]
The in vivo antitumor potential of AGB using the xenograft mouse model was assessed. […]

In assay [3] the test system is U2OS cells transfected with mitochondrial-RFP reporter gene. The assay is described as follows: Time-lapse microscopy of mitochondrial morphology. It counts as cell-based, human. The following applies: 30 hour, 4 μM AGB treatment. How it is done:
Another cluster highlighted in the ProTargetMiner analysis was related to mitochondrial translation and respiration function. Time-lapse microscopy was used to monitor the changes of mitochondrial morphology during a 30 hour, 4 μM AGB treatment using U2OS cells transfected with mitochondrial-RFP reporter gene (data not shown). AGB indeed triggers dynamic changes of mitochondria. As shown in the movie recorded using time-lapse microscopy (data not shown), about 5 hours after the start of the imaging, mitochondria changed to a thread-like, very elongated morphology. Then the threads slowly broke up. At about 10 h, the mitochondria became small dots and these dots got brighter. At the end of the movie (about 30 h treatment), some cells underwent mitochondrial outer membrane permeabilization (the abrupt loss of fluorescence in mitochondria) and died.

In assay [4] the test system is mitochondria of NCI-H460 cells. Description: Mitochondrial morphology and fusion/fission proteins (MitoTracker, Western Blot, immunofluorescence, TEM). It counts as cell-based, human. The text has this: Mitochondria are highly dynamic organelles that frequently fuse and fragment, with the ability to change size, shape, and position. The dynamic nature of mitochondria is important for mitochondrial inheritance and for the maintenance of mitochondrial functions. When the balance between fission and fusion is disrupted, as result of a relative increase or decrease in either process, the overall mitochondrial morphology is changed markedly.
Several proteins that control mitochondrial fusion and fission have been identified, including mitofusins and OPA1 for fusion, and Mff and DRP1 for fission. The effects of AGB on the expression of mitochondrial fusion proteins (Mfn1 and Mfn2) and fission proteins (DRP1 and Mff) were studied. […] DRP1 phosphorylation at residue S637 by protein kinase A inhibits mitochondrial fission whereas dephosphorylation at S637 increases mitochondrial recruitment of DRP1 and promotes mitochondrial fission. The localization of DRP1 was examined by the immunofluorescence staining.
OPA1 is another protein localized at the inner mitochondrial membrane and is involved in different function like regulation of mitochondrial morphology dynamics, maintenance of respiratory chain, and control of ATP synthesis. The decrease of L-OPA1 causes inhibition of mitochondrial fusion, whereas the accumulation of S-OPA1 facilitates mitochondrial fission. […] OPA1 plays a role in maintaining the mitochondrial cristae structure. OPA1 fragmentation leads to a disorganization of the structure of the mitochondrial inner membrane. The ultrastructure of mitochondria was observed under transmission electron microscopy (TEM) with the treatment of AGB or vehicle for 16 h.
Background: Immunoblotting shows a protein as a band on a membrane.

In assay [5] the target is T1, HSP60 (Homo sapiens, UniProt P10809). The assay is described as follows: MDH refolding assay (chaperone function). In kind it is biochemical. The settings on record: pre-incubation of Hsp60 with AGB. The text has this:
The function of HSP60 is mainly for its chaperone activity. HSP60 cooperates with co-chaperonin HSP10 to perform the misfolded proteins refolding and reactivate. Mitochondrial malate dehydrogenase (MDH), one of HSP60 substrates, was examined for the inhibition of chaperone function by AGB.

The target of assay [6] is T1, HSP60. The assay is described as follows: CETSA / ITDRFCETSA immunoblot. It counts as binding. The arrangement: dose dependent recovery of soluble HSP60 in cells subjected to heating; endogenous in cells; host or cells: NCI-H460. The following applies: CETSA melt curve, NCI-H460 cells. How it is done:
Immunoblot experiments were carried out for validating of the three identified potential targets. […] In the isothermal dose-response fingerprint (ITDRFCETSA) experiment, treatment of cells with increasing concentrations of AGB led to dose dependent recovery of soluble HSP60 in cells subjected to heating at protein denaturation temperature at 60° C.

T1 sequence (P10809 27-573): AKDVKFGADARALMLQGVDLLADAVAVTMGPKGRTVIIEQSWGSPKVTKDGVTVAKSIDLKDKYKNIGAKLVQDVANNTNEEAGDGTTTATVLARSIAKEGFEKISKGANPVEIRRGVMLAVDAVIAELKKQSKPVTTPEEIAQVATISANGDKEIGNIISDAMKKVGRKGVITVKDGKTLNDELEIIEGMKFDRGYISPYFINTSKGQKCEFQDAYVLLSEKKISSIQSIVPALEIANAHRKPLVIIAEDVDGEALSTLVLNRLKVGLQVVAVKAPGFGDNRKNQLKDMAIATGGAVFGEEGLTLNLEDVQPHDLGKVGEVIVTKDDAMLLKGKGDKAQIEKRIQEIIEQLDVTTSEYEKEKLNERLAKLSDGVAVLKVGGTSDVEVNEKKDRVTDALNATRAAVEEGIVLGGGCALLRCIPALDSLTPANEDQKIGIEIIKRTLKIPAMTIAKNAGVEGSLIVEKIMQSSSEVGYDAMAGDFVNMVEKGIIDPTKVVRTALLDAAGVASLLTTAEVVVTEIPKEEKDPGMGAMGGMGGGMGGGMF

`CCCC(=O)c1c(O)c(Cc2c(O)c(Cc3c(O)c(C)c(OC)c(C(=O)CCC)c3O)c(O)c(C(=O)[C@@H](C)CC)c2O)c(O)c(C)c1OC` [AGB, Agrimol B]: the midpoint of inhibition in assay [1], the IC50, lay at 4 µM. Also, the “tumor growth inhibition rate” value in assay [2] was 64%. For the same compound, in assay [3], the mitochondrial morphology entry is “cells underwent a mitochondrial fission”. Besides, the “morphology of mitochondria (MitoTracker Green)” value in assay [4] (4 μM AGB, 0-16 h) is recorded as “gradually changed into significant punctuated structures”. In addition, the “ultrastructure of mitochondria (TEM)” value in assay [4] (16 h treatment) is listed as “circular vesicles of reduced diameter predominated”. Also, in assay [4] (Western Blot), the “expression of DRP1 and Mff” value is “did not alter”; the “phosphor-DRP1 (Ser637)” value is on record as “significant decrease”. For the same compound, in assay [4] (Western Blot, dose and time dependent), the “OPA1 cleavage from L-OPA1 into S-OPA1” value was “promoted OPA1 cleavage”. For the same compound, the “expression of Mfn1 and Mfn2” value in assay [4] (Western Blot, dose-dependent) is “slightly decreased”. For the same compound, the “translocation of DRP1 from cytoplasm into mitochondria” value in assay [4] (immunostaining, mito-RFP-transfected cells) was “significantly promoted”. Further, the MDH refolding activities result at HSP60 [5] was “concentration-dependent inhibition”. For the same compound, at HSP60 [6], the “increase in the protein melting temperature (Tm) vs DMSO control” value was found to be 3.2 °C.

Usually IC50 stands for the concentration that gives 50% inhibition. Read a low IC50 as inhibition by little substance.
